# Data as given in PMC10759180 (RSC Advances, 2024).
# “Also recorded” adds a separate entry of the source.
# Assays:
# α-amylase = test: In vitro α-amylase inhibition assay; format: biochemical; settings: read-out: α-Amylase activity IC50 ± SEM; mean ± SEM, triplicate; iodine starch method, pH 6.8, 50 °C, 30 minutes
# Escherichia coli = test: Antibacterial disc diffusion assay, Escherichia coli; format: cell-based; settings: for Antibacterial zone of inhibition, Escherichia coli: disc diffusion, samples 100 μM, kanamycin 10 μM, 24 hours at 37 °C
# Staphylococcus aureus = test: Antibacterial disc diffusion assay, Staphylococcus aureus; format: cell-based; settings: for Antibacterial zone of inhibition, Staphylococcus aureus: disc diffusion, samples 100 μM, kanamycin 10 μM, 24 hours at 37 °C
# Pseudomonas aeruginosa = test: Antibacterial disc diffusion assay, Pseudomonas aeruginosa; format: cell-based; settings: samples 100 μM, kanamycin 10 μM, 24 hours at 37 °C
# Bacillus subtilis = test: Antibacterial disc diffusion assay, Bacillus subtilis; format: cell-based; settings: samples 100 μM, kanamycin 10 μM, 24 hours at 37 °C
# Candida albicans = test: Antifungal disc diffusion assay, Candida albicans; format: cell-based; settings: read-out: Antifungal zone of inhibition, Candida albicans
# urease = urease (Canavalia ensiformis, UniProt P07374); settings: read-out: Urease activity IC50 ± SEM; pH 8.2
# Chain of urease (P07374 whole entry, looked up): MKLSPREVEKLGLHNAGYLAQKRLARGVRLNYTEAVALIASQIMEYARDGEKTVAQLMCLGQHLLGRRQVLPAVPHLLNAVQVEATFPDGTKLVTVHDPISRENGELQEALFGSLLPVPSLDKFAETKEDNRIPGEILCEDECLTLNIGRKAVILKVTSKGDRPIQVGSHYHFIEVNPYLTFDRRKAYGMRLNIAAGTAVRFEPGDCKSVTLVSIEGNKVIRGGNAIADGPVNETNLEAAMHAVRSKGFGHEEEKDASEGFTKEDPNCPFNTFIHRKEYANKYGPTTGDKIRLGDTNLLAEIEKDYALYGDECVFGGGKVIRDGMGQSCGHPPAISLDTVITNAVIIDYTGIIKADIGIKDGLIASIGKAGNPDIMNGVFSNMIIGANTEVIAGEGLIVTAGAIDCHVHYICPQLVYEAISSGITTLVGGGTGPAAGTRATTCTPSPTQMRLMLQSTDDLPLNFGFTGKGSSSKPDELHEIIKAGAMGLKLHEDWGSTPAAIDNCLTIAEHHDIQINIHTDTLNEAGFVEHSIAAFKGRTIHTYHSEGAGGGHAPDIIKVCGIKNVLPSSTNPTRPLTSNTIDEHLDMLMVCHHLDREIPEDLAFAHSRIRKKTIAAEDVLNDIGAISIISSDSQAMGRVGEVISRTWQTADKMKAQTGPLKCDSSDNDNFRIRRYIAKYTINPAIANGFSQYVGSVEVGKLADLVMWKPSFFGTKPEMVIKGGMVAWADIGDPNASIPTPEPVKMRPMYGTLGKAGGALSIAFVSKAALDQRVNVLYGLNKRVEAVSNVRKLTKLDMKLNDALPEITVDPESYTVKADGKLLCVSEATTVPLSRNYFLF
smiles,measurement,setting,value
"Cc1ccc(C(=O)N(C(=O)c2ccc(C)cc2)C(=S)N2N=C(c3ccc(F)cc3)CC2c2ccc(F)cc2)cc1 (stereo not shown) [Compound 5a, N-(3,5-Bis(4-fluorophenyl)-4,5-dihydro-1H-pyrazole-1-carbonothioyl)-4-methyl-N-(4-methylbenzoyl)benzamide]",IC50,α-amylase,118.4 ± 0.64 µM
"Cc1ccc(C(=O)N(C(=O)c2ccc(C)cc2)C(=S)N2N=C(c3ccc(F)cc3)CC2c2cccc(F)c2)cc1 (stereo not shown) [Compound 5b, N-(5-(3-Fluorophenyl)-3-(4-fluorophenyl)-4,5-dihydro-1H-pyrazole-1-carbonothioyl)-4-methyl-N-(4-methylbenzoyl)benzamide]",IC50,α-amylase,99.3 ± 0.62 µM
"Cc1ccc(C(=O)N(C(=O)c2ccc(C)cc2)C(=S)N2N=C(c3ccccc3)CC2c2ccc(F)cc2)cc1 (stereo not shown) [Compound 5d, N-(5-(4-Fluorophenyl)-3-phenyl-4,5-dihydro-1H-pyrazole-1-carbonothioyl)-4-methyl-N-(4-methylbenzoyl)benzamide]",IC50,α-amylase,104 ± 3.18 µM
same,zone of inhibition at 100 µM,"Escherichia coli; Escherichia coli, 24 h, read-out: Antibacterial zone of inhibition, Escherichia coli",7 mm
same,"Antibacterial zone of inhibition, Escherichia coli",Escherichia coli,significant antibacterial activity; also recorded: excellent bacterial inhibition zone
same,zone of inhibition at 100 µM,"Staphylococcus aureus; Staphylococcus aureus, 24 h, read-out: Antibacterial zone of inhibition, Staphylococcus aureus",10 mm
same,"Antibacterial zone of inhibition, Staphylococcus aureus",Staphylococcus aureus,significant antibacterial activity; also recorded: excellent bacterial inhibition zone
"Cc1ccc(C(=O)N(C(=O)c2ccc(C)cc2)C(=S)N2N=C(c3ccc(Br)cc3)CC2c2ccc(F)cc2)cc1 (stereo not shown) [Compound 5e, N-(3-(4-Bromophenyl)-5-(4-fluorophenyl)-4,5-dihydro-1H-pyrazole-1-carbonothioyl)-4-methyl-N-(4-methylbenzoyl)benzamide]",IC50,α-amylase,97.4 ± 1.53 µM
"Cc1ccc(C(=O)N(C(=O)c2ccc(C)cc2)C(=S)N2N=C(c3ccc(Br)cc3)CC2c2cccc(F)c2)cc1 (stereo not shown) [Compound 5f, N-(3-(4-Bromophenyl)-5-(3-fluorophenyl)-4,5-dihydro-1H-pyrazole-1-carbonothioyl)-4-methyl-N-(4-methylbenzoyl)benzamide]",IC50,α-amylase,90.3 ± 1.08 µM
"Cc1ccc(C(=O)N(C(=O)c2ccc(C)cc2)C(=S)N2N=C(c3ccc(Cl)cc3)CC2c2ccc(Cl)cc2)cc1 (stereo not shown) [Compound 5g, N-(3,5-Bis(4-chlorophenyl)-4,5-dihydro-1H-pyrazole-1-carbonothioyl)-4-methyl-N-(4-methylbenzoyl)benzamide]",IC50,α-amylase,131 ± 1.56 µM
"Cc1ccc(C(=O)N(C(=O)c2ccc(C)cc2)C(=S)N2N=C(c3ccccc3)CC2c2ccc(C)cc2)cc1 (stereo not shown) [Compound 5h, 4-Methyl-N-(4-methylbenzoyl)-N-(3-phenyl-5-(p-tolyl)-4,5-dihydro-1H-pyrazole-1-carbonothioyl)benzamide]",IC50,α-amylase,121 ± 3.75 µM
"Cc1ccc(C(=O)N(C(=O)c2ccc(C)cc2)C(=S)N2N=C(c3ccc(C)cc3)CC2c2ccc(F)cc2)cc1 (stereo not shown) [Compound 5i, N-(5-(4-Fluorophenyl)-3-(p-tolyl)-4,5-dihydro-1H-pyrazole-1-carbonothioyl)-4-methyl-N-(4-methylbenzoyl)benzamide]",IC50,α-amylase,114.6 ± 0.28 µM
"Cc1ccc(C(=O)N(C(=O)c2ccc(C)cc2)C(=S)N2N=C(c3ccc(C)cc3)CC2c2ccc(Cl)cc2)cc1 (stereo not shown) [Compound 5j, N-(5-(4-Chlorophenyl)-3-(p-tolyl)-4,5-dihydro-1H-pyrazole-1-carbonothioyl)-4-methyl-N-(4-methylbenzoyl)benzamide]",IC50,α-amylase,110 ± 1.56 µM
"NC[C@H]1O[C@H](O[C@H]2[C@H](O)[C@@H](O[C@H]3O[C@H](CO)[C@@H](O)[C@H](N)[C@H]3O)[C@H](N)C[C@@H]2N)[C@H](O)[C@@H](O)[C@@H]1O [Kanamycin, reference compound]","Antibacterial zone of inhibition, Escherichia coli",Escherichia coli,16 mm
same,"Antibacterial zone of inhibition, Pseudomonas aeruginosa",Pseudomonas aeruginosa,20 mm
same,"Antibacterial zone of inhibition, Bacillus subtilis",Bacillus subtilis,22 mm
same,"Antibacterial zone of inhibition, Staphylococcus aureus",Staphylococcus aureus,18 mm
CN(C/C=C/C#CC(C)(C)C)Cc1cccc2ccccc12 [Terbinafine],zone of inhibition at 10 µM,Candida albicans,20 mm
NC(N)=S [Thiourea],IC50,urease,9.8 ± 0.1 µM
